Reference: patent US10639305B2, “Liquid preparation comprising pimobendan” (Boehringer Ingelheim Vetmedica GmbH, priority 2006, dated 2020)
In brackets after ≈: the same amount, converted by molar mass.

Experiments:
[1] = Saturated solubility of pimobendan at 10 to 40% (w/v) HPβCD at pH 3, 5 and 7; type: physicochemical; conditions: HPβCD 10 to 40% (w/v), pH 3, 5, 7, 25° C.
Procedure: Kleptose® HP (Roquette, France) was used as HPβCD of pharmaceutical grade. […] The solutions were buffered with a sodium phosphate solution. The sample solutions were prepared using the following method: • a) Approximately 3 ml of the solution under test was placed in a 7 ml glass vial with a magnetic stirring bar. • b) The pH was adjusted with hydrochloric acid • c) An excess of pimobendan was added.

[2] = cited from earlier work
physchem = type: physicochemical
Procedure: Saturated solubility of pimobendan was investigated at 20 to 25% (w/v) of HPβCD in 10 mM phosphate buffer pH 7.0. The study was carried out on three different batches of HPβCD and each solution tested in duplicate (see FIG. 3). The solutions were prepared using the following method: • a) Approximately 3 ml of the solution under test was placed in a 7 ml glass vial with a magnetic stirring bar. • b) An excess of pimobendan was added. The sample was placed in an ultrasonic bath and sonicated for 5 min. to ensure an excess of pimobendan was present and more added if required. • c) The samples were placed in a water bath at 25° C. and stirred for at least 16 hours. • d) The samples were filtered using 0.2 μm PVDF syringe filter. • e) The samples were assayed by HPLC.
An isotonic solution was required for the formulation. […] Sodium chloride was added to increase the osmolality to 303 mOsm/Kg. Saturated solubility of pimobendan 0.75 mg/ml at 24% (w/v) HPβCD were investigated and results were compared with those formulations that were not supplemented with sodium chloride.

SMILES: COc1ccc(-c2nc3ccc(C4=NNC(=O)CC4C)cc3[nH]2)cc1 (stereo not shown) [pimobendan, 4,5-dihydro-6-[2-(4-methoxyphenyl)-1H-benzimidazol-5-yl]-5-methyl-3(2H)-pyridazinone]
- solubility at a certain HPβCD concentration, compared between pH values [1]: lower at pH 7 than at pH 3, but higher than at pH 5
- solubility at pH 7 [2]: about 0.1 mg per 100 ml
- solubility (physchem; 25 °C, pH 7, aqueous with cosolvent or surfactant or cyclodextrin, thermodynamic from solid, saturated solubility (amount of soluble pimobendan)): ~1230 µg/mL (≈ 3.68 mM)
- saturated solubility (amount of soluble pimobendan) (physchem; pH 7): about 0.71 mg/ml
